System: 935938-334-R-J1-PDC spheroids with HUVEC/MSC, viability
Assay: Anticancer human tumor 935938-334-R-J1-PDC patient-derived small intestine adenocarcinoma cell line growth inhibition [PI3K]
Details: for viability, T/C: stronger effect = lower value
Summary of the method: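 High-throughput combination screen: PI3K inhibitors crossed with targeted small molecules on complex spheroids of tumor cells, HUVEC and MSCs at 37 degrees C, 5% CO2. Top concentration was at or near clinical Cmax (otherwise 10 microM), with half-log decrements.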

[1] = curve of first compound, second compound 0.0316 µM
[2] = curve of first compound, second compound 0.1 µM
[3] = curve of first compound, second compound 0.316 µM
[4] = curve of first compound, second compound 1 µM
[5] = curve of first compound, second compound 3.16 µM
[6] = curve of first compound, second compound 10 µM
[7] = second compound 0.0316 µM, first compound 0.0316 µM
[8] = second compound 0.0316 µM, first compound 0.1 µM
[9] = second compound 0.0316 µM, first compound 0.316 µM
[10] = second compound 0.0316 µM, first compound 1 µM
[11] = second compound 0.0316 µM, first compound 3.16 µM
[12] = second compound 0.0316 µM, first compound 10 µM
[13] = second compound 0.1 µM, first compound 0.0316 µM
[14] = second compound 0.1 µM, first compound 0.1 µM
[15] = second compound 0.1 µM, first compound 0.316 µM
[16] = second compound 0.1 µM, first compound 1 µM
[17] = second compound 0.1 µM, first compound 3.16 µM
[18] = second compound 0.1 µM, first compound 10 µM
[19] = second compound 0.316 µM, first compound 0.0316 µM
[20] = second compound 0.316 µM, first compound 0.1 µM
[21] = second compound 0.316 µM, first compound 0.316 µM
[22] = second compound 0.316 µM, first compound 1 µM
[23] = second compound 0.316 µM, first compound 3.16 µM
[24] = second compound 0.316 µM, first compound 10 µM
[25] = second compound 1 µM, first compound 0.0316 µM
[26] = second compound 1 µM, first compound 0.1 µM
[27] = second compound 1 µM, first compound 0.316 µM
[28] = second compound 1 µM, first compound 1 µM
[29] = second compound 1 µM, first compound 3.16 µM
[30] = second compound 1 µM, first compound 10 µM
[31] = second compound 3.16 µM, first compound 0.0316 µM
[32] = second compound 3.16 µM, first compound 0.1 µM
[33] = second compound 3.16 µM, first compound 0.316 µM
[34] = second compound 3.16 µM, first compound 1 µM
[35] = second compound 3.16 µM, first compound 3.16 µM
[36] = second compound 3.16 µM, first compound 10 µM
[37] = second compound 10 µM, first compound 0.0316 µM
[38] = second compound 10 µM, first compound 0.1 µM
[39] = second compound 10 µM, first compound 0.316 µM
[40] = second compound 10 µM, first compound 1 µM
[41] = second compound 10 µM, first compound 3.16 µM
[42] = second compound 10 µM, first compound 10 µM
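Note: compound exposure lasted seven days before viability was read.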
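Throughout, for viability, T/C: percent of vehicle DMSO treated spheroid viability so 100% = untreated.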

SMILES: CCCS(=O)(=O)Nc1ccc(F)c(C(=O)c2c[nH]c3ncc(-c4ccc(Cl)cc4)cc23)c1F + Cc1nc(NC(=O)N2CCCC2C(N)=O)sc1-c1ccnc(C(C)(C)C(F)(F)F)c1
- IC50 [1]: 6.36 µM
- IC50 [2]: 6.49 µM
- IC50 [3]: 5.57 µM
- IC50 [4]: 5.52 µM
- IC50 [5]: 4.6 µM
- IC50 [6]: 0.0316 µM
- viability, T/C [7]: 85.6%
- viability, T/C [8]: 113%
- viability, T/C [9]: 98.5%
- viability, T/C [10]: 97.6%
- viability, T/C [11]: 94.1%
- viability, T/C [12]: 21.5%
- viability, T/C [13]: 90.2%
- viability, T/C [14]: 75.4%
- viability, T/C [15]: 105%
- viability, T/C [16]: 112%
- viability, T/C [17]: 98.2%
- viability, T/C [18]: 22.3%
- viability, T/C [19]: 82%
- viability, T/C [20]: 110%
- viability, T/C [21]: 88.9%
- viability, T/C [22]: 95.5%
- viability, T/C [23]: 81.2%
- viability, T/C [24]: 17.6%
- viability, T/C [25]: 75.3%
- viability, T/C [26]: 85%
- viability, T/C [27]: 88%
- viability, T/C [28]: 74.1%
- viability, T/C [29]: 77.1%
- viability, T/C [30]: 21.2%
- viability, T/C [31]: 63.1%
- viability, T/C [32]: 52.7%
- viability, T/C [33]: 69%
- viability, T/C [34]: 65.5%
- viability, T/C [35]: 67.5%
- viability, T/C [36]: 22.1%
- viability, T/C [37]: 36.9%
- viability, T/C [38]: 47.2%
- viability, T/C [39]: 54.2%
- viability, T/C [40]: 51.7%
- viability, T/C [41]: 54.4%
- viability, T/C [42]: 18.2%

SMILES: CCCS(=O)(=O)Nc1ccc(F)c(C(=O)c2c[nH]c3ncc(-c4ccc(Cl)cc4)cc23)c1F
- viability, T/C (compound 0.0316 µM): 98.8% [middle of 4 runs]
- viability, T/C (compound 0.1 µM): 111% [middle of 4 runs]
- viability, T/C (compound 0.316 µM): 108% [middle of 4 runs]
- viability, T/C (compound 3.16 µM): 110% [middle of 4 runs]
- viability, T/C (compound 10 µM): 31% [middle of 4 runs]
- IC50 (curve of compound): 7.38 µM [middle of 4 runs]

SMILES: CNC(=O)c1ccc(N2C(=S)N(c3ccc(C#N)c(C(F)(F)F)c3)C(=O)C2(C)C)cc1F + Cc1nc(NC(=O)N2CCCC2C(N)=O)sc1-c1ccnc(C(C)(C)C(F)(F)F)c1
- IC50 [1]: > 10 µM
- IC50 [2]: > 10 µM
- IC50 [3]: > 10 µM
- IC50 [4]: > 10 µM
- IC50 [5]: < 0.0316 µM
- IC50 [6]: 0.162 µM
- viability, T/C [7]: 111%
- viability, T/C [8]: 84.3%
- viability, T/C [9]: 84.9%
- viability, T/C [10]: 91.9%
- viability, T/C [11]: 100%
- viability, T/C [12]: 88%
- viability, T/C [13]: 81.7%
- viability, T/C [14]: 88.7%
- viability, T/C [15]: 65.5%
- viability, T/C [16]: 84.4%
- viability, T/C [17]: 76.8%
- viability, T/C [18]: 62.9%
- viability, T/C [19]: 103%
- viability, T/C [20]: 59.7%
- viability, T/C [21]: 81.9%
- viability, T/C [22]: 69.6%
- viability, T/C [23]: 77%
- viability, T/C [24]: 56.7%
- viability, T/C [25]: 75.2%
- viability, T/C [26]: 76.8%
- viability, T/C [27]: 70.2%
- viability, T/C [28]: 101%
- viability, T/C [29]: 56.2%
- viability, T/C [30]: 70.7%
- viability, T/C [31]: 39.6%
- viability, T/C [32]: 43.9%
- viability, T/C [33]: 51%
- viability, T/C [34]: 51.5%
- viability, T/C [35]: 47%
- viability, T/C [36]: 47.3%
- viability, T/C [37]: 45.6%
- viability, T/C [38]: 59.7%
- viability, T/C [39]: 46.2%
- viability, T/C [40]: 39.3%
- viability, T/C [41]: 38.5%
- viability, T/C [42]: 34.3%
